Results published in paper PMC10486429, “Investigations Using Albumin Binders to Modify the Tissue Distribution Profile of Radiopharmaceuticals Exemplified with Folate Radioconjugates” (Cancers, 2023).

Tested on: KB tumor-bearing athymic nude mice
Test: Biodistribution of 177Lu-RedFols in KB tumor-bearing mice
Type: in vivo, mouse
Description: Athymic nude mice (Crl:CD1-Foxn^nu) were kept on a folate-deficient rodent diet (ssniff Spezialdiäten GmbH, Soest, Germany) for at least one week prior to inoculation with the tumor cells. Biodistribution studies were performed approx. two weeks after subcutaneous inoculation with KB tumor cells (5 × 10^6 in 100 μL PBS) (Supplementary Materials Section S12). […] Data were presented as the average ± SD of n = 3−4 mice.
Purpose: Biodistribution studies were performed in KB tumor-bearing athymic nude mice (Crl:CD1-Foxnnu) in order to investigate the tissue distribution profiles of the novel radioconjugates. The aim was to compare the impact of the two different albumin binders (4-(p-iodophenyl)butanoate unit vs. 5-(p-iodophenyl)pentanoate unit), and that of the in-corporation of an AMBA linker adjacent to the albumin binder on the distribution profile of the resulting folate radioconjugates.
Methods: The methods are described in the main article. The mice were sacrificed at […]

## CN1c2c(nc(N)[nH]c2=O)NC[C@H]1CNc1ccc(C(=O)N[C@@H](CCC(=O)N[C@@H](CCCCNC(=O)CN2CCN(CC(=O)O)CCN(CC(=O)O)CCN(CC(=O)O)CC2)C(=O)N[C@@H](CCCCNC(=O)c2ccc(CNC(=O)CCCCc3ccc(I)cc3)cc2)C(=O)O)C(=O)O)cc1 [[^177Lu]Lu-6R-RedFol-25, metal not drawn]
1 h p.i.
  Blood, accumulated activity: 13 ± 3 % IA/g
  Bone, accumulated activity: 1.5 ± 0.3 % IA/g
  Intestines, accumulated activity: 1.7 ± 0.3 % IA/g
  KB tumor, accumulated activity: 15 ± 1 % IA/g
  Kidneys, accumulated activity: 22 ± 3 % IA/g
  Liver, accumulated activity: 2.3 ± 0.6 % IA/g
  Lung, accumulated activity: 5.8 ± 1.7 % IA/g
  Muscle, accumulated activity: 1.4 ± 0.1 % IA/g
  Salivary glands, accumulated activity: 4.7 ± 3.3 % IA/g
  Spleen, accumulated activity: 1.7 ± 0.3 % IA/g
  Stomach, accumulated activity: 1.7 ± 0.2 % IA/g
  Tumor-to-blood ratio: 1.2 ± 0.4
  Tumor-to-kidney ratio: 0.67 ± 0.07
  Tumor-to-liver ratio: 6.8 ± 2.4
4 h p.i.
  Blood, accumulated activity: 6.1 ± 0.5 % IA/g
  Bone, accumulated activity: 1.1 ± 0.1 % IA/g
  Intestines, accumulated activity: 0.78 ± 0.15 % IA/g
  KB tumor, accumulated activity: 30 ± 3 % IA/g
  Kidneys, accumulated activity: 39 ± 2 % IA/g
  Liver, accumulated activity: 2.1 ± 0.2 % IA/g
  Lung, accumulated activity: 3.4 ± 0.1 % IA/g
  Muscle, accumulated activity: 1.3 ± 0.2 % IA/g
  Salivary glands, accumulated activity: 4.8 ± 3.2 % IA/g
  Spleen, accumulated activity: 1.2 ± 0.1 % IA/g
  Stomach, accumulated activity: 1.1 ± 0.1 % IA/g
  Tumor-to-blood ratio: 4.9 ± 0.2
  Tumor-to-kidney ratio: 0.78 ± 0.11
  Tumor-to-liver ratio: 14 ± 1
24 h p.i.
  Blood, accumulated activity: 0.16 ± 0.08 % IA/g
  Bone, accumulated activity: 0.50 ± 0.12 % IA/g
  Intestines, accumulated activity: 0.26 ± 0.06 % IA/g
  KB tumor, accumulated activity: 34 ± 5 % IA/g
  Kidneys, accumulated activity: 48 ± 4 % IA/g
  Liver, accumulated activity: 1.5 ± 0.2 % IA/g
  Lung, accumulated activity: 0.78 ± 0.23 % IA/g
  Muscle, accumulated activity: 1.1 ± 0.6 % IA/g
  Salivary glands, accumulated activity: 3.1 ± 2.0 % IA/g
  Spleen, accumulated activity: 0.60 ± 0.04 % IA/g
  Stomach, accumulated activity: 0.44 ± 0.06 % IA/g
  Tumor-to-blood ratio: 247 ± 101
  Tumor-to-kidney ratio: 0.72 ± 0.15
  Tumor-to-liver ratio: 23 ± 7
